Data reported in patent US8518911B2, “Pyrazolo[1,5-a]pyridines as MARK inhibitors” (Merck Sharp & Dohme Corp., priority 2008, dated 2013).

Molecular target: T1, recombinant MARK3 enzyme (Homo sapiens, UniProt P27448)
T1 construct: purchased University of Dundee
Experiment: MARK 3 Assay (HTRF, Cdc25C biotinylated peptide substrate)
Type: biochemical
Conditions: MARK3, 10 μM ATP, 1 μM peptide substrate, 2 hours at 25° C.
Procedure: MARK3 activity was assayed in vitro using a Cdc25C biotinylated peptide substrate (Cell Signalling Technologies). The phosphopeptide product was quantitated using a Homogenous Time-Resolved Fluorescence (HTRF) assay system (Park et al., 1999, Anal. Biochem. 269:94-104). The reaction mixture contained 50 mM HEPES/Tris-HCl, pH 7.4; […], 5 mM MgCl2, 0.2 mM NaVO4, 5 mM β-glycerol phosphate, 0.1% Tween-20, 2 mM dithiothreitol, 0.1% BSA, 10 μM ATP, 1 μM peptide substrate, and 10 nM recombinant MARK3 enzyme (University of Dundee) in a final volume of 12 μL. The buffer additionally contained protease inhibitor cocktail (Roche EDTA-free, 1 tab per 50 ml). The kinase reaction was incubated for 2 hours at 25° C., and then terminated with 3 μl Stop/Detection Buffer (50 mM HEPES, pH 7.0, 16.6 mM EDTA, 0.5M KF, 0.1% Tween-20, 0.1% BSA, 2 μg/ml SLX^ent 665 (CISBIO), and 2 μg/mL Eu^3+ cryptate label antibody (CISBIO)). The reaction was allowed to equilibrate overnight at 0° C., and relative fluorescent units were read on an HTRF enabled plate reader (e.g. TECAN GENios Pro).
Inhibitor compounds were assayed in the reaction described above to determine compound IC50s. Aliquots of compound dissolved in DMSO were added to the reaction wells in a third-log dilution series covering a range of 1 nM to 10 μM. Relative phospho substrate formation, read as HTRF fluorescence units, was measured over the range of compound concentrations and a titration curve generated.

T1 sequence (P27448 whole entry, species assumed): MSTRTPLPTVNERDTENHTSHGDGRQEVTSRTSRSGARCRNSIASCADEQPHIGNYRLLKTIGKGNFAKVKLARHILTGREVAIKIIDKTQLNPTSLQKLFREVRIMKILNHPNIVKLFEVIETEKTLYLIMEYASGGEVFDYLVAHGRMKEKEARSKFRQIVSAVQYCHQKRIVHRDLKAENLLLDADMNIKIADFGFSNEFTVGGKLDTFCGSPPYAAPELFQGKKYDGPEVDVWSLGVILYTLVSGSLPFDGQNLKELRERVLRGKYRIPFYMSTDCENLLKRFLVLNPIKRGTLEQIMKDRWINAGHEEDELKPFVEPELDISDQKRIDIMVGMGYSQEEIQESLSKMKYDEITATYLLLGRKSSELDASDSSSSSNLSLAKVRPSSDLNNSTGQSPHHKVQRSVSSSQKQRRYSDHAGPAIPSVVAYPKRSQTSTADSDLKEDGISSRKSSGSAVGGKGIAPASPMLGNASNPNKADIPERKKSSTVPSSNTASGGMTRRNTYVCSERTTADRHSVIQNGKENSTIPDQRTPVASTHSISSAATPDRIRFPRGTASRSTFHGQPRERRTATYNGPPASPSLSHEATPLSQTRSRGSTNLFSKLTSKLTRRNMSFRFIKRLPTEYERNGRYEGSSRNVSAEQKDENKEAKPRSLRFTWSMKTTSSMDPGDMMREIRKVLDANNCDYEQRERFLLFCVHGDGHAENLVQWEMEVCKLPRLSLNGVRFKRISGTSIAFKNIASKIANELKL

| SMILES | IC50 [nM] |
| --- | --- |
| N[C@@H]1CCCC(F)(F)[C@@H]1NC(=O)c1nc(-c2cnn3cc(-c4ccc(F)cc4)ccc23)c(Cl)s1 [Example 1] | 21 |
| N[C@@H]1CCCC(F)(F)[C@@H]1NC(=O)c1cc(-c2cnn3ccccc23)c(Cl)s1 [Example 206, N-[(1R,6R)-6-amino-2,2-difluorocyclohexyl]-5-chloro-4-pyrazolo[1,5-a]pyridin-3-yl-2-thiophenecarboxamide] | 19 |
| CCc1sc(C(=O)N[C@@H]2[C@@H](N)CCCC2(F)F)cc1-c1cnn2cc(F)ccc12 [Example 170, N-[(1R,6S)-6-Amino-2,2-difluorocyclohexyl]-5-ethyl-4-(6-fluoropyrazolo[1,5-a]pyridin-3-yl)thiophene-2-carboxamide] | 29 |
| N[C@H]1CCCC(F)(F)[C@@H]1NC(=O)c1nc(-c2cnn3ccccc23)c(Cl)s1 [Example 7, N-[(1R,6S)-6-Amino-2,2-difluorocyclohexyl]-5-chloro-4-pyrazolo[1,5-a]pyridin-3-yl-1,3-thiazole-2-carboxamide] | 4 |
| Cc1sc(C(=O)NC(CN)c2ccccc2)nc1-c1cnn2cc(-c3cnn(C)c3)ccc12 (stereo not drawn) [Example 182, N-(2-Amino-1-phenylethyl)-5-methyl-4-[6-(1-methyl-1H-pyrazol-4-yl)pyrazolo[1,5-a]pyridin-3-yl]-1,3-thiazole-2-carboxamide] | 13 |
| C=C(C)c1ccc2c(-c3csc(C(=O)N[C@@H]4[C@@H](N)CCCC4(F)F)n3)cnn2c1 [Example 157, N-[(1R,6S)-6-Amino-2,2-difluorocyclohexyl]-4-(6-isopropenylpyrazolo[1,5-a]pyridin-3-yl)-1,3-thiazole-2-carboxamide] | 0.5 |
